# Read-outs that look alike come from different tables or passages of the source.
# How the values were obtained:
# [1] = tested on: HIV-1RF; experiment: CEM-T4 cell infection assay, reverse transcriptase readout, isolate RF; assay type: cell-based; conditions: Human immunodeficiency virus 1, CEM-T4, 168 h, 7 days, read-out: Virus Isolate (EC50 ng/mL) RF
# Text: (§1) RF represents the HIV-1 strain HIV-LRF and RFR represents a mixture of resistant strains obtained by selection of RF against the compound of Example 1. RFR comprises a mixture of viral strains having protease genotypes of G48V (14/40 clones); G48V, V82A (18/40 clones); G48V, L90S (2/40 clones); G48V, 154T, V82A (1/40 clones); G48M (1/40 clones); G48V, Q61H (1/40 clones); V13I, G48V (1/40 clones); G48V, F53L, V82A (1/40 clones); and G48V, V82A, C95Y (1/40 clones). RFR2 represents a mixture of resistant strains obtained by cloning RFR by three rounds of growth at limiting dilution. RFR2 comprises a mixture of viral strains having protease genotypes of G48V, V82A (13/15 clones); G17E, G48V, V82A (1/15 clones); and G48V, V82A, N37D, N88D (1/15 clones). RFRR represents a mixture of resistant strains obtained by selection of RF against the compounds of Examples 1 and 2 and then cloning by three rounds of growth at limiting dilution. RFRR comprises a mixture of viral strains having protease genotypes of G48V, 154T, L63P, V82A (7/9 clones); G48V, 154T, L63P, V82A, N88S (1/9 clones); and G48V, 154T, L63P, G73M, V82A (1/9 clones). SF162 represents the HIV-1 strain SF-162 and SF162R represents a mixture of resistant strains obtained by selection of SF162 against the compound of Example 1. SF162R comprises a mixture of viral strains having protease genotypes of M461, F53L, L63P, A71V, N88D (2/3 clones); and M46I, F53L, L63P, A71V, N88D, Q92R (1/3 clones). 89-959 represents the HIV-1 strain 89-959 and 89-959R represents a mixture of resistant strains obtained by selection of 89-959 against the compound of Example 2. 89-959R comprises a mixture of viral strains having protease genotypes of N88S (4/5 clones); and D25N, T26A, D30N, D37N, R41K, G73D, R87K, N88S (1/4 clones). NL4 represents the HIV-1 strain HIV-1NL4-3. NL4(G48V) represents a strain having a synthetically generated site-directed mutation in the protease from glycine to valine at amino acid position number 48. NL4(I84V) represents a strain having a synthetically generated site-directed mutation in the protease from isoleucine to valine at amino acid position number 84. NL4(R8Q,M46I) represents a strain having synthetically generated site-directed mutations in the protease from arginine to glutamine at amino acid position number 8 and methionine to isoleucine at amino acid position number 46. NL4(P22-538) represents a mixture of resistant strains obtained by selection of HIV-1NL4-3 against the compound of Example 10 after 22 passages comprising protease genotypes M46I, L63P, A71V, V82F, I84V (4/10); M46I, L63P, V82F, I84V (3/10); and M46I, A71V, V82F, I84V (3/10). NL4(P37-538) represents resistant strains obtained by selection of HIV-1NL4-3 against the compound of Example 10 after 37 passages comprising protease genotype M46I, L63P, A71V, 184A. NL4(538/524) represents resistant strains obtained by selection of NL4(P22-538) against the compound of Example 5 after 24 passages comprising protease genotype M46I, L63P, A71V, 184A. NL4(538/P7-AG) represents a mixture of resistant strains obtained by selection of NL4(P22-538) against the compound of Example 12 after 7 passages comprising protease genotypes M46I, L63P, A71V, 184A; and V321, V82I. NL4(538/P24-AG) represents resistant strains obtained by selection of NL4(P22-538) against the compound of Example 12 after 24 passages comprising protease genotype M46I, L63P, A71V, 184A. NLA(P19-003) represents resistant strains obtained by selection of HIV-1^NL4-3 against the compound of Example 9 after 19 passages comprising protease genotype R8K, M46I. NL4(P34-003) represents resistant strains obtained by selection of HIV-1^NL4-3 against the compound of Example 9 after 34 passages comprising protease genotype R8K, M46I, L63P, A71V, L90M.
# (§2) The viral isolate resistance results summarized in Tables 4-6 were generated according to the following assay procedure or minor modifications thereof. Assays are performed in 96-well tissue culture plates. […]
# [2] = tested on: RFR (resistant strains selected from RF against Example 1); experiment: CEM-T4 cell infection assay, reverse transcriptase readout, resistant isolate RFR; assay type: cell-based, HIV-1; conditions: Human immunodeficiency virus 1, CEM-T4, 168 h, 7 days, read-out: Virus Isolate (EC50 ng/mL) RFR
# Text: as §1, §2
smiles,measurement,setting,value
"CC(C)CCN(C[C@@H](O)[C@H](Cc1ccccc1)NC(=O)[C@H](CC(N)=O)NC(=O)c1ccc2ccccc2n1)C(=O)NC(C)(C)C (relative stereo) [Example 7, [1S-[1R*(R*),2S*]]-N^1-[3-[[[(1,1-dimethylethyl)amino]carbonyl](3-methylbutyl)amino]-2-hydroxy-1-(phenylmethyl)propyl]-2-[(2-quinolinylcarbonyl)amino]-butanediamide]",EC50,"[1]; Table 5, CEM-T4 cells",2 ng/mL
same,EC50,"[2]; Table 5, CEM-T4 cells",78 ng/mL
"CNCC(=O)N[C@H](C(=O)N[C@@H](Cc1ccccc1)[C@H](O)CN(CCC(C)C)C(=O)NC(C)(C)C)C(C)(C)C [Example 2, (2R,3S)-3-(N-methylaminoacetyl-L-tert-butylglycinyl)amino-1-(N-isoamyl-N-(tert-butylcarbamoyl))amino-4-phenyl-2-butanol]",EC50,"[1]; Table 4, CEM-T4 cells",40 ng/mL
same,EC50,"[1]; Table 6, CEM-T4 cells",35 ng/mL
same,EC50,"[2]; Table 4, CEM-T4 cells",8 ng/mL
"CC(C)(C)NC(=O)[C@@H]1CN(Cc2cccnc2)CCN1C[C@@H](O)C[C@@H](Cc1ccccc1)C(=O)N[C@H]1c2ccccc2C[C@H]1O [Example 5, N-(2(R)-Hydroxy-1(S)-indanyl)-2(R)-phenylmethyl-4(S)-hydroxy-5-(1-(4-(3-pyridylmethyl)-2(S)-N′-(t-butylcarboxamido)-piperazinyl))-pentaneamide]",EC50,"[1]; Table 4, CEM-T4 cells",44 ng/mL
same,EC50,"[1]; Table 6, CEM-T4 cells",6 ng/mL
same,EC50,"[2]; Table 4, CEM-T4 cells",7 ng/mL
"CC(C)CN(C[C@@H](O)[C@H](Cc1ccccc1)NC(=O)[C@H](CC(N)=O)NC(=O)c1ccc2ccccc2n1)S(=O)(=O)NC(C)(C)C [Example 8, N-[3-[N^2-[N^1-(1,1-dimethylethyl)aminosulfonyl]-N^2-(2-methylpropyl)amino]-2R-hydroxy-1S-(phenylmethyl)propyl]-2S-[(2-quinolinylcarbonyl)amino]butanediamide]",EC50,"[1]; Table 5, CEM-T4 cells",2 ng/mL
same,EC50,"[2]; Table 5, CEM-T4 cells",1 ng/mL
"CC(C)(C)NC(=O)[C@@H]1CC2CCCC[C@@H]2CN1C[C@@H](O)[C@H](Cc1ccccc1)NC(=O)[C@H](CC(N)=O)NC(=O)c1ccc2ccccc2n1 (stereo in doubt) [Example 6, N-tert-Butyl decahydro-2-[2(R)-hydroxy-4-phenyl-3(S)-[[N-(2-quinolylcarbonyl)-L-asparaginyl]amino]butyl]-(4aR,8aS)-isoquinoline-3(S)-carboxamide]",EC50,"[1]; Table 4, CEM-T4 cells",12 ng/mL
same,EC50,"[1]; Table 6, CEM-T4 cells",6 ng/mL
same,EC50,"[2]; Table 4, CEM-T4 cells",15 ng/mL
"CC(C)CN(C[C@@H](O)[C@H](Cc1ccccc1)NC(=O)[C@H](CC(N)=O)NC(=O)c1ccc2ccccc2n1)C(=O)NC(C)(C)C (relative stereo) [Example 1, [1S-[1R*(R*),2S*]]-N^1-[3-[[[(1,1-dimethylethyl)amino]carbonyl])2-methylpropyl)amino]-2-hydroxy-1-(phenylmethyl)propyl]-2-[(2-quinolinylcarbonyl)amino]-butanediamide]",EC50,"[1]; Table 4, CEM-T4 cells",30 ng/mL
same,EC50,"[1]; Table 5, CEM-T4 cells",24 ng/mL
same,EC50,"[1]; Table 6, CEM-T4 cells",19 ng/mL
same,EC50,"[2]; Table 4, CEM-T4 cells",223 ng/mL
same,EC50,"[2]; Table 5, CEM-T4 cells",394 ng/mL
